# Experimental data taken from US9586905B2, “Benzoazepine derivative and medical use thereof” (SANWA KAGAKU KENKYUSHO CO., LTD., priority 2012, dated 2017).
# Target: T1, human V2 receptor (Homo sapiens, UniProt P30518)
# T1 construct: A DNA fragment containing a human V2 receptor code region; expressed in transfected cells
# Assay: cAMP production test in V2 receptor expression cell
# Type: cell-based
# Details: for EC50: human V2 receptor expression cell, 30 minutes at room temperature, HTRF cAMP kit; for Emax: maximum reaction by 8-AVP assumed to be 100%
# Method: Pharmacological Test (1) Preparation of Human V2 Receptor Expression Cell
# A DNA fragment containing a human V2 receptor code region was inserted into an expression vector of a vertebrate cell. The expression vector was genetically introduced into an animal cell to have the human V2 receptor express in the surface of the cell. Since the expression vector could express a neo gene which functions as a G418 resistance marker, it was cultured in a G418-containing medium, thereby selectively obtaining a human V2 receptor stable expression cell.
# (2) cAMP Production Test in V2 Receptor Expression Cell
# The human V2 receptor expression cell, which was prepared in the above described method, was recovered and resuspended into an incubation buffer (F-12 medium, 20 mM HEPES), and 5 μl of the cell was then divided into a 384-well plate with a density of 15,000 cells/well. 5 μl of a compound solution or an 8-AVP ((Arg^8)-vasopressin) solution, which was diluted with an assay buffer (F-12 medium, 20 mM HEPES, 1 mM IBMX), (total 10 μl/well) was added to each well (final concentration: 15,000 cells/well, 500 μM IBMX, 1% dimethyl sulfoxide). After incubation at room temperature for 30 minutes, a cAMP production amount was measured using a commercially available HTRF cAMP kit (Cisbio Inc.) according to the described protocol. Excel Fit was used in order to find EC50 and Emax values of the test compound.
# T1 sequence (P30518 whole entry, the tested form may be a part): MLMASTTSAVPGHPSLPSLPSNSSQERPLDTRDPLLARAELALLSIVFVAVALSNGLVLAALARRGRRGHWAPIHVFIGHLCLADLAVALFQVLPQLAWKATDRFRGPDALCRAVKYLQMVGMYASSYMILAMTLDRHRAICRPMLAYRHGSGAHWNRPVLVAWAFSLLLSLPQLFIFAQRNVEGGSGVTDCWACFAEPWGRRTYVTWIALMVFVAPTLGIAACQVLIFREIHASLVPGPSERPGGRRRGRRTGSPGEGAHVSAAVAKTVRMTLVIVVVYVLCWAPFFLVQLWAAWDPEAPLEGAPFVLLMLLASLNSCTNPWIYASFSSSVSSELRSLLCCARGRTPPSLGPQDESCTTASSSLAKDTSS
Compound,EC50,Emax
COC(=O)C1(C)CCN(C(=O)c2ccc(N3CCCC3)cc2Cl)c2ccccc2C1 (racemic) [Example 31],7.9 nM,102%
"CC1(C(=O)O)CCN(C(=O)c2ccc(-n3cccn3)cc2Cl)c2ccccc2C1 (racemic) [Example 52, 1-[2-chloro-4-(1H-pyrazol-1-yl)benzoyl]-4-methyl-2,3,4,5-tetrahydro-1H-benzo[b]azepine-4-carboxylic acid]",3.9 nM,85%
CC1(C(=O)NCc2nnco2)CCN(C(=O)c2ccc(N3CCCC3)cc2Cl)c2ccccc2C1 (racemic) [Example 82],1.1 nM,101%
"CC(NC(=O)C1(C)CCN(C(=O)c2ccc(OCC(F)(F)F)cc2Cl)c2ccccc2C1)C(N)=O (single isomer, unassigned) [Example 76]",0.99 nM,102%
COC(=O)C1(C)CCN(C(=O)c2ccc(-n3cccn3)cc2Cl)c2ccccc2C1 (racemic) [Example 34],9.8 nM,98%
Cc1cc(N2CCC(C)C2)ccc1C(=O)N1CCC(F)(C(=O)NCC(N)=O)Cc2ccccc21 (racemic) [Example 95],0.99 nM,102%
CCCOc1ccc(C(=O)N2CCC(C)(C(=O)NC(C)CO)Cc3ccccc32)c(Cl)c1 (racemic) [Example 83],3.4 nM,100%
CC1(C(=O)NCC(N)=O)CCN(C(=O)c2ccc(-n3cccn3)cc2Cl)c2ccccc2C1 (racemic) [Example 88],8.1 nM,93%
CC(CO)NC(=O)C1Cc2ccccc2N(C(=O)c2ccc(N3CCCC3)cc2Cl)CC1C (racemic) [Example 98],1 nM,101%
COC(=O)C1(C)CCN(C(=O)c2ccc(-c3ncco3)cc2Cl)c2ccccc2C1 (racemic) [Example 33],20 nM,96%
CC1CN(C(=O)c2ccc(N3CCCC3)cc2Cl)c2ccccc2CC1(F)C(=O)NCC(N)=O (racemic) [Example 101],1.1 nM,102%
CC(CO)NC(=O)C1(C)CCN(C(=O)c2ccc(-c3ncco3)cc2Cl)c2ccccc2C1 (racemic) [Example 85],15 nM,94%
"COC(=O)C1(C)CCN(C(=O)c2ccc(-n3ccc(C)n3)cc2C(F)(F)F)c2ccccc2C1 (single isomer, unassigned) [Example 35]",1.4 nM,102%
CCNC(=O)CNC(=O)C1(C)CCN(C(=O)c2ccc(N3CCCC3)cc2Cl)c2ccccc2C1 (racemic) [Example 80],2.8 nM,101%
"CCCOc1ccc(C(=O)N2CCC(C)(C(=O)O)Cc3ccccc32)c(Cl)c1 (racemic) [Example 50, 1-(2-chloro-4-propoxybenzoyl)-4-methyl-2,3,4,5-tetrahydro-1H-benzo[b]azepine-4-carboxylic acid]",0.9 nM,100%
CCCOc1ccc(C(=O)N2CCC(C)(C(=O)OC)Cc3ccccc32)c(Cl)c1 (racemic) [Example 32],9.1 nM,104%
"CC1(C(=O)O)CCN(C(=O)c2ccc(-c3ncco3)cc2Cl)c2ccccc2C1 (racemic) [Example 51, 1-[2-chloro-4-(oxazol-2-yl)benzoyl]-4-methyl-2,3,4,5-tetrahydro-1H-benzo[b]azepine-4-carboxylic acid]",6 nM,73%
CC(CO)NC(=O)C1(F)Cc2ccccc2N(C(=O)c2ccc(N3CCCC3)cc2Cl)CC1C (racemic) [Example 100],3 nM,100%
CC1(C(=O)NCC(N)=O)CCN(C(=O)c2ccc(-c3ncco3)cc2Cl)c2ccccc2C1 (racemic) [Example 86],17 nM,88%
CC(C)C(NC(=O)C1(C)CCN(C(=O)c2ccc(OCCCF)cc2Cl)c2ccccc2C1)C(N)=O (racemic) [Example 73],1.9 nM,100%
CC(CO)NC(=O)C1(C)CCN(C(=O)c2ccc(-n3cccn3)cc2Cl)c2ccccc2C1 (racemic) [Example 87],9.5 nM,97%
CCN(CC)C(=O)CNC(=O)C1(C)CCN(C(=O)c2ccc(N3CCCC3)cc2Cl)c2ccccc2C1 (racemic) [Example 81],6.6 nM,100%
CCCOc1ccc(C(=O)N2CCC(C)(C(=O)NCC(N)=O)Cc3ccccc32)c(Cl)c1 (racemic) [Example 84],2.5 nM,100%
Cc1nnc(NC(=O)C2(C)CCN(C(=O)c3ccc(N4CCCC4)cc3Cl)c3ccccc3C2)o1 (racemic) [Example 79],0.9 nM,100%

# Compounds with a lower EC50, results first:
EC50,Emax,Compound
0.8 nM,103%,COC(=O)C1Cc2ccccc2N(C(=O)c2ccc(N3CCCC3)cc2Cl)CC1C (racemic) [Example 42]
0.74 nM,102%,"Cc1cc(N2CCCC2)ccc1C(=O)N1CCC(C)(C(=O)NC(C)C(N)=O)Cc2ccccc21 (single isomer, unassigned) [Example 68]"
0.56 nM,102%,Cc1ccn(-c2ccc(C(=O)N3CC(C)C(C)(C(=O)NCC(N)=O)Cc4ccccc43)c(C)c2)n1 (racemic) [Example 97]
0.53 nM,101%,Cc1cc(N2CCC(C)C2)ccc1C(=O)N1CCC(C)(C(=O)NCC(N)=O)Cc2ccccc21 (racemic) [Example 69]
0.5 nM,102%,"CC1(C(=O)O)CCN(C(=O)c2ccc(N3CCCC3)cc2Cl)c2ccccc2C1 (racemic) [Example 49, 1-[2-chloro-4-(pyrrolidine-1-yl)benzoyl)-4-methyl-2,3,4,5-tetrahydro-1H-benzo[b]azepine-4-carboxylic acid]"
0.41 nM,101%,Cc1cc(N2CCC(C)C2)ccc1C(=O)N1CCC(F)(C(N)=O)Cc2ccccc21 (racemic) [Example 94]
0.4 nM,102%,CC1CN(C(=O)c2ccc(N3CCCC3)cc2Cl)c2ccccc2CC1C(=O)NCC(N)=O (racemic) [Example 99]
0.34 nM,102%,"Cc1cc(N2CCCC2)ccc1C(=O)N1CCC(C)(C(=O)O)Cc2ccccc21 (single isomer, unassigned) [Example 45, 4-methyl-1-[2-methyl-4-(pyrrolidine-1-yl)benzoyl]-2,3,4,5-tetrahydro-1H-benzo[b]azepine-4-carboxylic acid]"
0.28 nM,102%,"Cc1cc(N2CCCC2)ccc1C(=O)N1CCC(F)(C(=O)O)Cc2ccccc21 (single isomer, unassigned) [Example 54, 4-fluoro-1-[2-methyl-4-(pyrrolidine-1-yl)benzoyl]-2,3,4,5-tetrahydro-1H-benzo[b]azepine-4-carboxylic acid]"
0.2 nM,101%,"Cc1ccn(-c2ccc(C(=O)N3C[C@@H](C)C(C)(C(=O)O)Cc4ccccc43)c(C)c2)n1 (mixture of isomers) [Example 55, (3S)-3,4-dimethyl-1-[2-methyl-4-(3-methyl-1H-pyrazol-1-yl)benzoyl]-2,3,4,5-tetrahydro-1H-benzo[b]azepine-4-carboxylic acid]"
0.2 nM,102%,"C[C@@H]1CN(C(=O)c2ccc(N3CCCC3)cc2Cl)c2ccccc2CC1(F)C(=O)O (mixture of isomers) [Example 57, (3R)-1-[2-chloro-4-(pyrrolidine-1-yl)benzoyl]-4-fluoro-3-methyl-2,3,4,5-tetrahydro-1H-benzo[b]azepine-4-carboxylic acid]"
0.1 nM,102%,"C[C@@H]1CN(C(=O)c2ccc(N3CCCC3)cc2Cl)c2ccccc2CC1C(=O)O (mixture of isomers) [Example 56, (3S)-1-[2-chloro-4-(pyrrolidine-1-yl)benzoyl]-3-methyl-2,3,4,5-tetrahydro-1H-benzo[b]azepine-4-carboxylic acid]"
0.1 nM,102%,COC(=O)C1(F)Cc2ccccc2N(C(=O)c2ccc(N3CCCC3)cc2Cl)CC1C (racemic) [Example 43]
0.06 nM,101%,"COC(=O)C1(F)CCN(C(=O)c2ccc(N3CCCC3)cc2C)c2ccccc2C1 (single isomer, unassigned) [Example 38]"
